# Earlier results, collected in US20080166330A1, “Bacterial Compositions For Prevention Or Treatment Of Atherosclerotic Disorders” (priority 2004, published 2008).
# Tested on: anti-Chlamydia abzymes
# Details: general statement of the description, no test details
structure (smiles),measurement,value
CC[C@H]1OC(=O)[C@H](C)[C@@H](O[C@H]2C[C@@](C)(OC)[C@@H](O)[C@H](C)O2)[C@H](C)[C@@H](O[C@@H]2O[C@H](C)C[C@H](N(C)C)[C@H]2O)[C@](C)(O)C[C@@H](C)CN(C)[C@H](C)[C@@H](O)[C@]1(C)O [azithromycin],inhibition of abzyme activity,inhibit abzyme activity
